Laboratory results taken from patent publication US9701729B2, “Peptide having 5 linked CTL epitopes” (TAIHO PHARMACEUTICAL CO., LTD., priority 2013, dated 2017).

How the values were obtained:
[1] = system: CTL epitope peptide specific CTL; test: Induction of epitope peptide specific CTLs in mouse model, detection by IFN-γ ELISPOT; assay type: in vivo, mice (HLA-A2.1 transgenic and HLA-A24 transgenic mice); details: emulsion with IFA, 100 μl weekly at base of tail, twice; inguinal lymph node cells 1 week after final administration; positive = spots significantly above negative control peptide (p<0.05)
Experimental: The peptides having 5 linked epitopes were dissolved in Otsuka distilled water (Otsuka Pharmaceutical Factory Inc.) at 2 mg/ml or 4 mg/ml, and the resulting solution was filled into the B Braun Injekt syringe. After the equivalent amount of Incomplete Freund's adjuvant (IFA) was filled into another syringe, these syringes were connected to each other using a GP syringe connector, and a solution of the peptides having 5 linked epitopes was thoroughly mixed with IFA to prepare an emulsion. The emulsion was weekly administered in amounts of 100 μl each in the vicinity of base of tail of mice (HLA-A2.1 transgenic and HLA-A24 transgenic mice (Taconic)), and administrations were carried out twice in total. Inguinal lymph nodes were corrected from mice 1 week after the final administration. […] The number of IFN-γ-producing cell spots was quantified using an ELISPOT analyzer (Immunospot S6, Cellular Technology Ltd.). […]

[2] = system: CTL epitope peptide specific IgG antibody; test: Measurement of CTL-epitope specific IgG antibody titer in mouse serum (peptide-immobilized beads, Bio-Plex); assay type: in vivo, CBF1 mice (C57BL/6×Balb/c F1); details: emulsion with IFA, 100 μl weekly, three times; serum 1 week after final administration; compared with the IFA group
Experimental: Peptides were immobilized onto xMAP Multi-Analyte COOH Microspheres (Luminex Corporation; hereafter referred to as “beads”) in the manner described below. The beads were washed with MES buffer (0.1 M MES-NaOH; pH 7.0), the supernatant was removed by centrifugation. This washing process was repeated twice and the beads were then suspended in 75 μl of MES buffer. 100 μl of CTL epitope peptide solution (1 mg/ml), and 5 μl of 10 mg/ml EDC (1-ethyl-3-(3-dimethylaminopropyl)carbodiimide hydrochloride) solution was added into beads suspension then mixed well. Thereafter, the reaction was performed at 30° C. in the dark overnight. After the removal of supernatant by centrifugation on the following day, 125 μl of 1 M Tris-HCl was added, and incubation was carried out at 30° C. in the dark for 30 minutes. After the supernatant was removed again, the beads were washed twice with wash buffer (PBS(-), 0.05% Tween 20) and were suspended in Immunoblock (DS Pharma Biomedical Co., Ltd.). […]
The CTL epitope peptide-immobilized beads diluted with Immunoblock were dispensed into wells of a 96-well filter plate. […] After the three times of plate washing with a wash buffer, 100 μl of wash buffer was added into each well to suspend beads, and the mean fluorescence intensity of PE which specifically bound to relevant beads was measured using the Bio-Plex Suspension Array System (BIO-RAD). […]

| Substance | number of types of CTL epitope peptide specific CTLs induced [1] | induction of CTL epitope specific IgG antibody production [2] |
| --- | --- | --- |
| PEP7-RR-PEP2-RR-PEP5-RR-PEP3-RR-PEP4 (QIRPIFSNRRRASLDSDPWVRRVYDYNCHVDLRRLLQAEAPRLRRDYSARWNEI) [TPV18] | no more than two CTLs induced | – |
| PEP2-RR-PEP3-RR-PEP4-RR-PEP5-RR-PEP7 (ASLDSDPWVRRLLQAEAPRLRRDYSARWNEIRRVYDYNCHVDLRRQIRPIFSNR) [TPV17] | – | multiple CTL epitope specific IgG antibodies production was not induced |
